The text below walks through data of PubChem BioAssay AID859 (Vanderbilt High Throughput Screening Facility, 2007).

The target in the experiment is Muscarinic acetylcholine receptor M1 (Rattus norvegicus) (UniProt P08482). As to the kind of experiment: M1 inhibitors against agonist EC80 response – cell-based, calcium fluorescence, dose response (AID 859). The conditions noted are these: M1-expressing cells, antagonist mode vs EC80.

Structures are written as SMILES.

Muscarinic acetylcholine receptor M1 (Rattus norvegicus), sequence (P08482 whole entry, looked up): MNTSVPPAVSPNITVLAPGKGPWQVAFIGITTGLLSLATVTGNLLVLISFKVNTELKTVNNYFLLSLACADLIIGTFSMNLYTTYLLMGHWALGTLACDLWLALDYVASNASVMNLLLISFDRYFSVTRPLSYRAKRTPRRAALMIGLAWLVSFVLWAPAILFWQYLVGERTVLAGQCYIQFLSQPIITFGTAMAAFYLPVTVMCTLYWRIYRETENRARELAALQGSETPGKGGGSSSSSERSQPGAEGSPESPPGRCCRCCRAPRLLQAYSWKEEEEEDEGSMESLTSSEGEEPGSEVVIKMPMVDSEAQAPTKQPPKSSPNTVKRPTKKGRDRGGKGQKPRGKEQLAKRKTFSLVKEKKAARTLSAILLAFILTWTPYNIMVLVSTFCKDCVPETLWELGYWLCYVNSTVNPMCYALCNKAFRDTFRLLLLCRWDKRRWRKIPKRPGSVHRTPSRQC

Regarding `CCN1C(=O)/C(=C\N2CCCCCC2)SC1=S`, the IC50 was 438 nM. For the compound `CN(C)CCC=C1c2ccccc2CCc2ccccc21`, the half-maximal inhibitory concentration (IC50) is 637 nM. For the compound `CN1CCN(CCC(C#N)(c2ccccc2)c2ccccc2)CC1`, the IC50 was 395 nM. With `CCOC(=O)Nc1ccc2c(c1)N(C(=O)N1CCN(C)CC1)c1ccccc1S2`, the IC50 was 1410 nM.

Take `Cc1ccc2c(c1)NC(=O)C(CC(=O)Nc1ccc(CN3CCC(C)CC3)cc1)O2` (stereo unspecified): the 50% inhibitory concentration (IC50) was 290 nM.

For `CNCCCC1c2ccccc2C=Cc2ccccc21`, the IC50 is 1260 nM.

For `O=C1CC(N2CCN(C/C=C/c3ccccc3)CC2)C(=O)N1Cc1cccs1` (stereo unspecified), the 50% inhibitory concentration (IC50) is 846 nM. Regarding `CN(C)CCCOC(=O)C1c2ccccc2Oc2ccccc21`, the IC50 is 63.7 nM. With `CN1CCC(OC(=O)C2c3ccccc3Oc3ccccc32)CC1`, the IC50 was 9.27 nM.

As for `CCN(CCCCOC(=O)c1ccc(OC)c(OC)c1)C(C)Cc1ccc(OC)cc1` (stereo unspecified), the IC50 was 1160 nM.

With `CN1CCCN=C1COC(=O)C(O)(c1ccccc1)C1CCCCC1` (stereo unspecified), the IC50 was 12.6 nM. As to `CCN(CC)CCOC(=O)C(c1ccccc1)c1ccccc1`, the IC50 is 327 nM. In the case of `CCN1CCN(Cc2cc(=O)oc3cc(C)cc(C)c23)CC1`, the IC50 is 974 nM. Turning to `Cc1nc2c(o1)CCc1ccccc1C2N1CCN(C)CC1` (stereo unspecified), the concentration for half-maximal inhibition (IC50) is 46.4 nM.

Take `C=CCSc1nnc2c(n1)OC(c1cccnc1)N(C(C)=O)c1ccccc1-2` (stereo unspecified): the concentration for half-maximal inhibition (IC50) is 190 nM. Take `Cc1ccc2nc(NC3=NCN(CCN4CCOCC4)CN3)nc(C)c2c1`: the 50% inhibitory concentration (IC50) is 2.77 nM. For the compound `O=C(CN1CCN(CCOCCO)CC1)N1c2ccccc2Sc2ccc(Cl)cc21`, the IC50 was 1030 nM. Consider `OC(CCN1CCCC1)(c1ccccc1)C1CCCCC1` (stereo unspecified), for which the IC50 was 116 nM.

For the compound `Cc1onc(-c2ccccc2Cl)c1C(=O)Nc1ccc(-c2nnc3n2CCCCC3)cc1`, the IC50 was 491 nM. On to `Clc1ccc(OCc2nnc(SCCN3CCCCC3)n2Cc2ccco2)cc1`, for which the IC50 is 1400 nM.

As to `CN1CCN(C2=Nc3ccccc3Oc3ccc(Cl)cc32)CC1`, the IC50 is 1210 nM. The figure for `Cc1cccc(Cn2c(Sc3nc(C)cs3)nc3c2c(=O)[nH]c(=O)n3C)c1` is 20.2 nM. Consider `COC(=O)Nc1ccc2c(c1)N(C(=O)CCN1CCOCC1)c1ccccc1S2`, for which the IC50 is 1060 nM.

`c1ccc(-c2cc(-c3nnc4sc(-c5ccccn5)nn34)[nH]n2)cc1`: the IC50 was 414 nM. Regarding `CN(C)CCOC(=O)C(c1ccccc1)C1(O)CCCC1` (stereo unspecified), the 50% inhibitory concentration (IC50) was 25.7 nM.

Turning to `Cc1c(C(=O)OC(C)CCN(C)C)oc2ccccc12` (stereo unspecified), the IC50 was 681 nM.

Regarding `CCCC(CCC)C(=O)OC1C[C@H]2CC[C@@H](C1)[N+]2(C)C` (stereo partly specified), the IC50 was 302 nM. With `OC(CCN1CCCCC1)(c1ccccc1)c1ccccc1`, the IC50 is 58 nM.

As for `Cn1cc(CN2CCN(c3ccccc3)CC2)c2ccccc21`, the IC50 is 226 nM.

Turning to `O=C1CC(N2CCN(c3ccc(S(=O)(=O)N4CCOCC4)cc3)CC2)C(=O)N1Cc1ccccc1` (stereo unspecified), the 50% inhibitory concentration (IC50) was 777 nM. Take `CC[N+]1(C)CCCC(OC(=O)C(O)(c2ccccc2)c2ccccc2)C1` (stereo unspecified): the IC50 was 15.9 nM. For `O=C(OCCN1CCCC1)C1(c2ccccc2)CCCC1`, the IC50 is 182 nM.

For `CC1CCN(Cc2ccc(NC(=O)CC3Oc4ccccc4NC3=O)cc2)CC1` (stereo unspecified), the IC50 is 234 nM.

As for `CCC(C)N(CCNC(=O)CC1Oc2ccc(C)cc2NC1=O)C1CCCCC1` (stereo unspecified), the concentration for half-maximal inhibition (IC50) was 1000 nM. In the case of `CCOc1nc(C#N)nc(N2CCCCC2)n1`, the half-maximal inhibitory concentration (IC50) was 1350 nM. Consider `O=C(CN1CCCC(O)C1)N1c2ccccc2Sc2ccc(C(F)(F)F)cc21` (stereo unspecified), for which the IC50 is 766 nM.
